Laboratory results published in paper PMC10377586 (Biomolecules, 2023).

Legend:
DPPH antioxidant assay = format: physicochemical; details: compound at 50 µM
Source text: The 2,2-diphenyl-1-picrylhydrazyl (DPPH) assay was used to determine the antioxidant properties of selected compounds using ascorbic acid, trolox, and quercetin as references. […] From a structural point of view, 21 and 22 share a common pyrimido[2,1-f]purinedione core with propyl or butyl substituents at the N1- and N3-position. Compounds 11i and 11l, containing hexyl or phenoxyethyl as N7-substituents, were the only structures in the groups of bicyclic xanthine derivatives that lacked antioxidant activity in the DPPH assay.
Antioxidant properties of considered structures were evaluated in DPPH test. The assay utilizes a stable free radical 2,2-diphenyl-1-picrylhydrazyl (DPPH). DPPH has a deep violet color in solution and strong absorption band at 520 nm. The antioxidant activity of the tested compounds was defined by their ability to induce the formation of the reduced form of DPPH. Upon reduction, DPPH color turned pale yellow, which manifested by decreased sample absorption at 520 nm and was measured in conducted experiments using EnSpire microplate reader (PerkinElmer). Antioxidant activity of xanthine derivatives and reference compounds was tested in triplicate at 50 µM concentration and normalized to the activity of reference radical scavenger—quercetin.
Figure 2 Antioxidant properties of xanthine derivatives evaluated in the DPPH test. All compounds were tested at 50 µM concentration. Results were normalized to the antioxidant activity measured for quercetin. ASC, ascorbic acid; TLX, trolox; QCT, quercetin.

Question: With `O=C1O[C@H]([C@@H](O)CO)C(O)=C1O` [Ascorbic acid, reference compound] as the compound, how does the “Antioxidative Activity [% of Quercetin Response at 50 µM ± SD]” value (DPPH antioxidant assay) read?
Answer: 78 ± 1 % of Quercetin Response

Question: For `Cn1c(=O)c2c(nc(NCCc3ccc(O)c(O)c3)n2CCc2ccccc2)n(C)c1=O` (hydrate or solvate) [Compound 11k, 8-((3,4-Dihydroxyphenethyl)amino)-1,3-dimethyl-7-phenethyl-3,7-dihydro-1H-purine-2,6-dione], which melting point is on record?
Answer: 180 to 182 °C

Question: For `Cn1c(=O)c2c(nc(NCCc3ccc(O)c(O)c3)n2Cc2ccccc2)n(C)c1=O` (hydrate or solvate) [Compound 11j, 7-Benzyl-8-((3,4-dihydroxyphenethyl)amino)-1,3-dimethyl-3,7-dihydro-1H-purine-2,6-dione], which melting point is on record?
Answer: 214 to 216 °C

Question: For `Cc1c(C)c2c(c(C)c1O)CCC(C)(C(=O)O)O2` (centres unmarked) [Trolox, reference compound], which “Antioxidative Activity [% of Quercetin Response at 50 µM ± SD]” value (DPPH antioxidant assay) is on record?
Answer: 73 ± 1 % of Quercetin Response

Question: For `CC(C)Cn1c(NCCc2ccc(O)c(O)c2)nc2c1c(=O)n(C)c(=O)n2C` (hydrate or solvate) [Compound 11f, 8-((3,4-Dihydroxyphenethyl)amino)-7-isobutyl-1,3-dimethyl-3,7-dihydro-1H-purine-2,6-dione], which melting point is on record?
Answer: 201 to 203 °C
